Results: paper PMC3320663 (Chemmedchem, 2011)
Where “and” joins values, the source holds several entries; their conditions need not be identical. Identical values can stand only once. Like-named read-outs stand apart in the source and are kept apart here.

Columns and labels:
TbTryS = molecular target: T1, TbTryS (Trypanosoma brucei, UniProt Q586P2); assay: Trypanothione synthetase; format: biochemical; conditions: for IC50: TbTryS IC50; for LE (ligand efficiency): calculated as −0.6×ln(IC50)/(heavy atom count)
T1 sequence (Q586P2 1-627): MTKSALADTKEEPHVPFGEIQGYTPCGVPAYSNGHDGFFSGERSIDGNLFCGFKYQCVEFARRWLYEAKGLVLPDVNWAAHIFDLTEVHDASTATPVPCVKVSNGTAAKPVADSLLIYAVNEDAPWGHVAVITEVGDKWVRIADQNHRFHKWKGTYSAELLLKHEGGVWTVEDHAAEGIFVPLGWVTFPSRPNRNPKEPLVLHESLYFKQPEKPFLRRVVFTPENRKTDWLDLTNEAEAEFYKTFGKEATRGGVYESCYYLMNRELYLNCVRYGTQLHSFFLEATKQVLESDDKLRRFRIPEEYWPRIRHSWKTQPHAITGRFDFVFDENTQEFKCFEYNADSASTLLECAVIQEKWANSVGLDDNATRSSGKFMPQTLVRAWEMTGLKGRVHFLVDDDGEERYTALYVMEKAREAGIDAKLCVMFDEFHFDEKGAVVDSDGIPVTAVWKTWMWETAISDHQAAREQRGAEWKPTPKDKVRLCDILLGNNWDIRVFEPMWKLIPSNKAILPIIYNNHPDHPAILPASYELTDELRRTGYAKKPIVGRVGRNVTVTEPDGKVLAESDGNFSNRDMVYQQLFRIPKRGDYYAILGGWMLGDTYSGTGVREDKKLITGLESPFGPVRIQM

[1] = tested on: bloodstream form T. brucei; assay: Trypanosomal cell proliferation assay; format: cell-based; conditions: Trypanosoma brucei, read-out: Tb EC50
[2] = Human cell counter-screen proliferation assay; format: cell-based; conditions: MRC5 fibroblasts
[3] = In vitro metabolic clearance assay; format: in vitro ADME, human; conditions: for metabolic stability in words: pooled human liver microsomes; for Cli (intrinsic clearance): pooled human microsomes
[4] = tested on: bloodstream form T. brucei; conditions: read-out: cell potency, cited from earlier work

O=C(Cn1nc(C(F)(F)F)c2c1CCCC2)NCc1ccc(Cl)cc1 [Compound 26, N-(4-Chlorobenzyl)-2-(3-(trifluoromethyl)-4,5,6,7-tetrahydro-1H-indazol-1-yl)acetamide]
IC50 (TbTryS): 3000 nM
EC50 [1]: 14000 nM
EC50 [2]: > 50000 nM
metabolic stability in words [3]: reasonably metabolically stable
Cli (intrinsic clearance) [3]: 3.0 mL/min/g

CC1CS(=O)(=O)CCN1/N=C/c1ccc([N+](=O)[O-])o1 (centres unmarked) [nifurtimox]
EC50 ([4]; drugs in clinical use): 2000 nM

Nc1nc(N)nc(Nc2ccc([As]3SCC(CO)S3)cc2)n1 (centres unmarked) [melarsoprol]
EC50 ([4]; drug in clinical use): 8 nM

CC(C)(C)S(=O)(=O)Cc1nc(-c2cccc(Cl)c2)cs1 [Compound 8, 2-((tert-Butylsulfonyl)methyl)-4-(3-chlorophenyl)thiazole]
IC50 (TbTryS): 400 nM and 410 nM
EC50 [1]: 22000 nM
EC50 [2]: > 50000 nM
metabolic stability in words [3]: reasonably metabolically stable
Cli (intrinsic clearance) [3]: 0.9 mL/min/g

CC(C)(C)C(=O)Cn1nc(-c2cccc(F)c2)c2ccccc21 [Compound 71, 1-(3-(3-Fluorophenyl)-1H-indazol-1-yl)-3,3-dimethylbutan-2-one]
in vitro enzyme potency improved over the best HTS hits (TbTryS): > 10 fold
IC50 (TbTryS): 90 nM
LE (ligand efficiency) (TbTryS): 0.42
EC50 [1]: 7900 nM
EC50 [2]: > 50000 nM
metabolic stability in words [3]: reasonably metabolically stable
Cli (intrinsic clearance) [3]: 1.6 mL/min/g

O=C(Cn1nnc(-c2cc(F)cc(F)c2)n1)c1ccccc1 [Compound 24, 2-(5-(3,5-Difluorophenyl)-2H-tetrazol-2-yl)-1-phenylethanone]
IC50 (TbTryS): 45000 nM

CCN(CC)C(=O)Cn1nc(C(F)(F)F)c2c1CCCC2 [Compound 35, N,N-Diethyl-2-(3-(trifluoromethyl)-4,5,6,7-tetrahydro-1H-indazol-1-yl)acetamide]
TbTryS activity in words (TbTryS): retained some inhibitory activity
IC50 (TbTryS): 15000 nM

Fc1cccc(-c2nn(Cc3ccccn3)c3ccccc23)c1 [Compound 75, 3-(3-Fluorophenyl)-1-(pyridin-2-ylmethyl)-1H-indazole]
IC50 (TbTryS): 2900 nM
LE (ligand efficiency) (TbTryS): 0.33

O=C(Cn1nc(-c2cccc(F)c2)c2ccccc21)NCc1ccc(Cl)cc1 [Compound 86, N-(4-Chlorobenzyl)-2-(3-(3-fluorophenyl)-1H-indazol-1-yl)acetamide]
IC50 (TbTryS): > 100000 nM

CC(C)(C)S(=O)(=O)Cc1nc(-c2cccc(C(F)(F)F)c2)cs1 [Compound 7, 2-(tert-Butylsulfonylmethyl)-4-(3-trifluoromethylphenyl)thiazole]
IC50 (TbTryS): 1100 nM

Cc1cc(Cn2nc(-c3cccc(F)c3)c3ccccc32)no1 [Compound 79, 3-((3-(3-Fluorophenyl)-1H-indazol-1-yl)methyl)-5-methylisoxazole]
IC50 (TbTryS): > 100000 nM

CC(C)(C)S(=O)(=O)Cc1nc(-c2ccccc2)cs1 [Compound 3, 2-((tert-Butylsulfonyl)methyl)-4-(phenyl)thiazole]
IC50 (TbTryS): 1200 nM

CCC(=O)Cn1nnc(-c2cc(Cl)cc(Cl)c2)n1 [Compound 22, 1-(5-(3,5-Dichlorophenyl)-2H-tetrazol-2-yl)butan-2-one]
IC50 (TbTryS): 2700 nM

CN1CCN(CCNC(=O)Cn2nc(-c3cccc(F)c3)c3ccccc32)CC1 [Compound 90, 2-(3-(3-Fluorophenyl)-1H-indazol-1-yl)-N-(2-(4-methylpiperazin-1-yl)ethyl)acetamide]
IC50 (TbTryS): 860 nM
LE (ligand efficiency) (TbTryS): 0.29

CC(C)(C)S(=O)(=O)Cc1nc(-c2cccc(F)c2)cs1 [Compound 9, 2-(tert-Butylsulfonylmethyl)-4-(3-fluorophenyl)thiazole]
IC50 (TbTryS): 400 nM

NCCCC(N)(C(=O)O)C(F)F (centres unmarked) [eflornithine]
EC50 ([4]; drugs in clinical use): 22000 nM

CC(C)(C)C(=O)Cn1nc(-c2ccccc2)c2ccccc21 [Compound 60, 1-(3-Phenyl-1H-indazol-1-yl)-3,3-dimethylbutan-2-one]
IC50 (TbTryS): 150 nM

Cc1nn(-c2ccccc2)nc1CNS(=O)(=O)C(C)(C)C [Compound 42, 2-Methyl-N-((5-methyl-2-phenyl-2H-1,2,3-triazol-4-yl)methyl)propane-2-sulfonamide]
IC50 (TbTryS): 37000 nM
